Results: PubChem BioAssay AID248 (DTP/NCI, 2004)
Toxic doses and inconclusive results are not listed.

System: L1210 leukemia ip in BDF1 mice, survival T/C
Experiment: NCI In Vivo Anticancer Drug Screen. Data for tumor model L1210 Leukemia (intraperitoneal) in B6D2F1 (BDF1) mice
Settings: endpoint: mean survival time, higher = longer survival
In short: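 Transplantable tumor model; survival measured in treated vs vehicle control mice. Value = treated/control.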

## CN(Cc1cnc2nc(N)nc(N)c2n1)c1c(Cl)cc(C(=O)NC(CCC(=O)O)C(=O)O)cc1Cl (stereo not drawn)
dose: 0.05 mg/kg/injection, schedule: Q03HX024 (ip), vehicle: alkali diluted with saline
  T/C: 108 % of control
dose: 0.12 mg/kg/injection, schedule: Q01DX Z (ip), vehicle: saline
  T/C: 103 % of control
dose: 0.2 mg/kg/injection, schedule: Q03HX024 (ip), vehicle: alkali diluted with saline
  T/C: 121 % of control
dose: 0.31 mg/kg/injection, schedule: Q03HX008 (ip), vehicle: carboxymethylcellulose (CMC)
  T/C: 114 % of control
dose: 0.39 mg/kg/injection, schedule: Q03HX024 (ip), vehicle: carboxymethylcellulose (CMC)
  T/C: 111 % of control
dose: 0.5 mg/kg/injection, schedule: Q01DX Z (ip), vehicle: saline
  T/C: 106 % of control
dose: 0.5 mg/kg/injection, schedule: Q01DX Z (sc), vehicle: alkali diluted with saline
  T/C: 102 % of control
dose: 0.6 mg/kg/injection, schedule: Q## X008 (ip), vehicle: alkali diluted with saline
  T/C: 106 % of control
dose: 0.63 mg/kg/injection, schedule: Q03HX008 (ip), vehicle: carboxymethylcellulose (CMC)
  T/C: 119 % of control
dose: 0.78 mg/kg/injection, schedule: Q03HX024 (ip), vehicle: carboxymethylcellulose (CMC)
  T/C: 114 % of control
dose: 1.0 mg/kg/injection, schedule: Q01DX Z (im), vehicle: alkali diluted with saline
  T/C: 107 % of control
dose: 1.0 mg/kg/injection, schedule: Q01DX Z (ip), vehicle: saline
  T/C: 122 % of control
dose: 1.0 mg/kg/injection, schedule: Q01DX Z (sc), vehicle: alkali diluted with saline
  T/C: 95 % of control
dose: 2.5 mg/kg/injection, schedule: Q01DX005 (ip), vehicle: carboxymethylcellulose (CMC)
  T/C: 117 % of control
dose: 2.5 mg/kg/injection, schedule: Q01DX Z (im), vehicle: alkali diluted with saline
  T/C: 102 % of control
dose: 2.5 mg/kg/injection, schedule: Q01DX Z (sc), vehicle: alkali diluted with saline
  T/C: 106 % of control
dose: 3.0 mg/kg/injection, schedule: Q01DX Z (ip), vehicle: carboxymethylcellulose (CMC)
  T/C: 159 % of control
dose: 3.0 mg/kg/injection, schedule: Q01DX Z (ip), vehicle: saline
  T/C: 169 % of control
dose: 4.0 mg/kg/injection, schedule: Q## X008 (ip), vehicle: alkali diluted with saline
  T/C: 104 % of control
dose: 5.0 mg/kg/injection, schedule: Q01DX005 (ip), vehicle: carboxymethylcellulose (CMC)
  T/C: 120 % of control
dose: 5.0 mg/kg/injection, schedule: Q01DX009 (ip), vehicle: carboxymethylcellulose (CMC)
  T/C: 121 % of control
dose: 5.0 mg/kg/injection, schedule: Q01DX009 (sc), vehicle: carboxymethylcellulose (CMC)
  T/C: 115 % of control
dose: 5.0 mg/kg/injection, schedule: Q01DX Z (im), vehicle: alkali diluted with saline
  T/C: 112 % of control
dose: 5.0 mg/kg/injection, schedule: Q01DX Z (oral), vehicle: alkali diluted with saline
  T/C: 120 % of control
dose: 5.0 mg/kg/injection, schedule: Q01DX Z (sc), vehicle: alkali diluted with saline
  T/C: 105 % of control
dose: 5.0 mg/kg/injection, schedule: Q#A X Z (ip), vehicle: methylcellulose (MC)
  T/C: 162 % of control
dose: 6.0 mg/kg/injection, schedule: Q01DX Z (ip), vehicle: carboxymethylcellulose (CMC)
  T/C: 161 % of control
dose: 6.25 mg/kg/injection, schedule: Q03HX024 (ip), vehicle: carboxymethylcellulose (CMC)
  T/C: 116 % of control
dose: 9.0 mg/kg/injection, schedule: Q01DX Z (ip), vehicle: clinical formulation
  T/C: 157 % of control
dose: 10.0 mg/kg/injection, schedule: Q01DX006 (iv), vehicle: alkali diluted with saline
  T/C: 106 % of control
dose: 10.0 mg/kg/injection, schedule: Q01DX Z (im), vehicle: alkali diluted with saline
  T/C: 159 % of control
dose: 10.0 mg/kg/injection, schedule: Q01DX Z (ip), vehicle: saline
  T/C: 167 % of control
dose: 10.0 mg/kg/injection, schedule: Q01DX Z (oral), vehicle: alkali diluted with saline
  T/C: 120 % of control
dose: 10.0 mg/kg/injection, schedule: Q01DX Z (sc), vehicle: alkali diluted with saline
  T/C: 159 % of control
dose: 12.5 mg/kg/injection, schedule: Q03HX024 (ip), vehicle: carboxymethylcellulose (CMC)
  T/C: 122 % of control
dose: 15.0 mg/kg/injection, schedule: Q## X008 (ip), vehicle: alkali diluted with saline
  T/C: 114 % of control
dose: 20.0 mg/kg/injection, schedule: Q01DX006 (iv), vehicle: alkali diluted with saline
  T/C: 123 % of control
dose: 20.0 mg/kg/injection, schedule: Q01DX007 (ip), vehicle: other
  T/C: 160 % of control
dose: 20.0 mg/kg/injection, schedule: Q01DX009 (ip), vehicle: carboxymethylcellulose (CMC)
  T/C: 153 % of control
dose: 20.0 mg/kg/injection, schedule: Q01DX Z (oral), vehicle: alkali diluted with saline
  T/C: 115 % of control
dose: 20.0 mg/kg/injection, schedule: Q#A X Z (ip), vehicle: olive oil, sesame oil, peanut oil
  T/C: 116 % of control
dose: 25.0 mg/kg/injection, schedule: Q04DX003 (ip), vehicle: alkali diluted with saline
  T/C: 112 % of control
dose: 25.0 mg/kg/injection, schedule: Q04DX003 (ip), vehicle: carboxymethylcellulose (CMC)
  T/C: 117 % of control
dose: 25.0 mg/kg/injection, schedule: Q## X003 (ip), vehicle: other
  T/C: 106 % of control
dose: 25.0 mg/kg/injection, schedule: Q## X016 (ip), vehicle: other
  T/C: 115 % of control
dose: 30.0 mg/kg/injection, schedule: Q01DX Z (ip), vehicle: carboxymethylcellulose (CMC)
  T/C: 159 % of control
dose: 30.0 mg/kg/injection, schedule: Q03DX Z (ip), vehicle: methylcellulose (MC)
  T/C: 122 % of control
dose: 40.0 mg/kg/injection, schedule: Q01DX007 (ip), vehicle: other
  T/C: 163 % of control
